Data reported in the NIST ThermoML archive (doi:10.1016/j.fluid.2014.11.009).
± gives the expanded uncertainty stated by the source.

What was measured:
[1] = xn = mol fraction of the nth substance listed; details: 101 kPa, Liquid; for mass density: Vibrating tube method; for viscosity: Cone and plate viscometry
[2] = 101 kPa, Liquid; for viscosity: Cone and plate viscometry; for mass density: Vibrating tube method

NC(N)=[NH2+].O=S(=O)([O-])C(F)(F)F [guanidinium trifluoromethanesulfonate] + O
[1]
Details | mass density, x1 = 0.0202 [kg/m3] | mass density, x1 = 0.2073 [kg/m3] | viscosity, x1 = 0.0018 [mPa·s] | viscosity, x1 = 0.0056 [mPa·s] | viscosity, x1 = 0.0095 [mPa·s] | viscosity, x1 = 0.0137 [mPa·s] | viscosity, x1 = 0.0181 [mPa·s] | viscosity, x1 = 0.0202 [mPa·s] | viscosity, x1 = 0.2073 [mPa·s]
293.2 K | 1087.8 ± 2.2 | 1125 ± 2.4 | – | – | – | – | – | – | –
298.2 K | 1084 ± 2.2 | 1120.3 ± 2.4 | – | – | – | – | – | – | –
303.2 K | 1080.8 ± 2.2 | 1116.9 ± 2.4 | 0.7366 ± 0.045 | 0.7996 ± 0.049 | 0.8208 ± 0.05 | 0.8616 ± 0.052 | 0.9134 ± 0.056 | 0.9855 ± 0.061 | 1.361 ± 0.083
313.2 K | 1073.9 ± 2.2 | 1110.6 ± 2.4 | 0.6512 ± 0.04 | 0.6757 ± 0.041 | 0.6976 ± 0.042 | 0.7326 ± 0.045 | 0.8268 ± 0.051 | 0.8374 ± 0.051 | 1.098 ± 0.067
323.2 K | 1067.4 ± 2.1 | 1103.8 ± 2.4 | 0.6047 ± 0.037 | 0.6289 ± 0.038 | 0.6517 ± 0.04 | 0.6872 ± 0.042 | 0.7268 ± 0.044 | 0.7438 ± 0.045 | 0.9221 ± 0.056
333.2 K | 1059.3 ± 2.1 | 1097.5 ± 2.3 | 0.5555 ± 0.034 | 0.5686 ± 0.035 | 0.5834 ± 0.036 | 0.6095 ± 0.037 | 0.6302 ± 0.038 | 0.6544 ± 0.04 | 0.67 ± 0.041
343.2 K | 1050.9 ± 2.1 | 1088.8 ± 2.3 | – | – | – | – | – | – | –
353.2 K | 1043.2 ± 2.1 | 1080 ± 2.3 | – | – | – | – | – | – | –
363.2 K | 1035 ± 2.1 | 1072.1 ± 2.3 | – | – | – | – | – | – | –

CN(CCO)CCO [N-methyldiethanolamine]
[2]
Details | mass density [kg/m3] | viscosity [mPa·s]
303.2 K | – | 56.3 ± 3.4
313.2 K | 1026.7 ± 2.2 | 34.44 ± 2.1
323.2 K | 1018.9 ± 2.2 | 22.93 ± 1.4

CN(CCO)CCO [N-methyldiethanolamine] + O
[1]
Details | mass density, x1 = 0.0192 [kg/m3] | mass density, x1 = 0.1168 [kg/m3] | viscosity, x1 = 0.0192 [mPa·s] | viscosity, x1 = 0.1168 [mPa·s]
293.2 K | 1011.8 ± 2 | 1043.3 ± 2.2 | – | –
298.2 K | 1008.9 ± 2 | 1040.4 ± 2.2 | – | –
303.2 K | 1005.8 ± 2 | 1037.3 ± 2.2 | 1.568 ± 0.095 | 6.671 ± 0.74
313.2 K | 999.7 ± 2 | 1030.8 ± 2.2 | 1.178 ± 0.071 | 4.706 ± 0.62
323.2 K | 993.1 ± 2 | 1024.1 ± 2.2 | 0.796 ± 0.048 | 3.057 ± 0.23
333.2 K | 983.8 ± 2 | 1016.9 ± 2.2 | 0.688 ± 0.042 | 2.193 ± 0.33
343.2 K | 977.9 ± 2 | 1009.4 ± 2.2 | – | 1.589 ± 0.1
353.2 K | 970.1 ± 1.9 | 1001.7 ± 2.1 | – | 1.194
363.2 K | 962 ± 1.9 | 993.5 ± 2.1 | – | –
